From ChEMBL document CHEMBL4834476, “Potent antiviral activity of Agrimonia pilosa, Galla rhois, and their components against SARS-CoV-2” (2021)
Active and inactive are the calls of the source. The calls are words filed in the database; no cut-off is given here.

Columns and labels:
[1] = system: SARS-CoV-2; assay: (§1) Antiviral activity against SARS-CoV-2 NCCP43326 infected in African green monkey Vero cells assessed as inhibition of plaque formation at 1 to 25 ug/ml treated with compound for 1 hr post-infection followed by drug wash-out and measured at 72 hrs post-infection by crystal violet staining analysis; format: functional; settings: for Activity: Severe acute respiratory syndrome coronavirus 2, dose 1-25 µg/ml
[2] = system: SARS-CoV-2; assay: as §1, with “at” for “at 1 to”, “analysis relative to control” for “analysis”; format: functional; settings: Severe acute respiratory syndrome coronavirus 2, NCCP43326, Vero
[3] = system: SARS-CoV-2; assay: Antiviral activity against SARS-CoV-2 NCCP43326 infected in African green monkey Vero cells assessed as reduction in spike protein production at 1 to 25 ug/ml cells were infected with virus for 1 hr followed by wash-out period and later treated with compound and measured after 72 hrs by ELISA; format: functional, organism-based; settings: Severe acute respiratory syndrome coronavirus 2, dose 1-25 µg/ml
[4] = system: SARS-CoV-2; assay: Antiviral activity against SARS-CoV-2 NCCP43326 infected in African green monkey Vero cells assessed as inhibition of plaque formation at 0.125 to 0.5 ug/ml treated with compound for 1 hr post-infection followed by drug wash-out and measured at 72 hrs post-infection by staining analysis; format: functional, organism-based; settings: Severe acute respiratory syndrome coronavirus 2, dose 0.125-0.5 µg/ml
[5] = system: SARS-CoV-2; assay: Antiviral activity against SARS-CoV-2 NCCP43326 infected in African green monkey Vero cells assessed as reduction in spike protein production at 1 to 25 ug/ml treated with compound for 1 hr post-infection followed by drug wash-out and measured at 72 hrs post-infection by ELISA; format: functional, organism-based; settings: Severe acute respiratory syndrome coronavirus 2, dose 1-25 µg/ml

Row | Structure (SMILES) | Activity [1] | inhibition at 25 µg/mL [2] [%] | Activity [3] | inhibition (INH) ([1]; dose 1-25 µg/ml, at 1 to 25 µg/mL) [%] | Activity [4] | Activity [5]
1 | CCOC(=O)c1cc(O)c(O)c(O)c1 [ETHYLGALLATE] | Active | 21.1 |  |  |  | 
2 | O=C(OC[C@H]1O[C@@H](OC(=O)c2cc(O)c(O)c(O)c2)[C@H](OC(=O)c2cc(O)c(O)c(O)c2)[C@@H](OC(=O)c2cc(O)c(O)c(O)c2)[C@@H]1OC(=O)c1cc(O)c(O)c(O)c1)c1cc(O)c(O)c(O)c1 [PENTAGALLOYL GLUCOSE] |  | 100 | Active | 100 | Active | Active
3 | O=c1c(O)c(-c2ccc(O)c(O)c2)oc2cc(O)cc(O)c12 [QUERCETIN] | Active | 67.2 | Active |  |  | Active
4 | C[C@H]1[C@H](C)CC[C@]2(C(=O)O)CC[C@]3(C)C(=CC[C@@H]4[C@@]5(C)CC[C@H](O)C(C)(C)[C@@H]5CC[C@]43C)[C@H]12 [URSOLIC ACID] | Active | 78.3 | Active |  |  | Active
